Source: ChEMBL document CHEMBL1201862, “PubChem BioAssay data set” (2004)
Blank lines part the entries; values can stand above or below the compound they belong to. Activity calls are given as the source filed them.

What was measured:
[1] = biological target: Lysosomal acid glucosylceramidase (Homo sapiens, UniProt P04062); experiment: Dose response cell-based high throughput screening assay to identify enhancers of beta-glucosidase activity. [Related pubchem assays: 784 ]; assay type: functional
Chain of Lysosomal acid glucosylceramidase (P04062 whole entry): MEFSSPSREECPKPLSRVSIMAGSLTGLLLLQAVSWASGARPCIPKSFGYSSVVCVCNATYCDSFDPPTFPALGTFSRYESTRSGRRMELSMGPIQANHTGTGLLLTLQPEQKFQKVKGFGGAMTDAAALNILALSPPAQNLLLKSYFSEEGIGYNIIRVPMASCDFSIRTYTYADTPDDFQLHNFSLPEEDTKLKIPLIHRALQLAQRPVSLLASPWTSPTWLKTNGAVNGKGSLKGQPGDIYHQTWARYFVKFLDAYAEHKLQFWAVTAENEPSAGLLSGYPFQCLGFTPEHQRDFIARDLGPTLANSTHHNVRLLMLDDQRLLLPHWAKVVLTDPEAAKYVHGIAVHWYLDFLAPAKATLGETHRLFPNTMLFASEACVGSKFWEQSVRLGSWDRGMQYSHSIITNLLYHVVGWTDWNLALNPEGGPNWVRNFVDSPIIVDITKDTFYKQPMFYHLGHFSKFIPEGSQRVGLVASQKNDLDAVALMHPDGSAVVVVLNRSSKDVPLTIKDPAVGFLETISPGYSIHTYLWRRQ

[2] = biological target: T1, Eukaryotic translation initiation factor 2-alpha kinase 3 (Homo sapiens, UniProt Q9NZJ5); experiment: Dose response cell-based high-throughput screening assay to measure PERK inhibition. [Related pubchem assays: 1416 ]; assay type: functional
T1 sequence (Q9NZJ5 whole entry): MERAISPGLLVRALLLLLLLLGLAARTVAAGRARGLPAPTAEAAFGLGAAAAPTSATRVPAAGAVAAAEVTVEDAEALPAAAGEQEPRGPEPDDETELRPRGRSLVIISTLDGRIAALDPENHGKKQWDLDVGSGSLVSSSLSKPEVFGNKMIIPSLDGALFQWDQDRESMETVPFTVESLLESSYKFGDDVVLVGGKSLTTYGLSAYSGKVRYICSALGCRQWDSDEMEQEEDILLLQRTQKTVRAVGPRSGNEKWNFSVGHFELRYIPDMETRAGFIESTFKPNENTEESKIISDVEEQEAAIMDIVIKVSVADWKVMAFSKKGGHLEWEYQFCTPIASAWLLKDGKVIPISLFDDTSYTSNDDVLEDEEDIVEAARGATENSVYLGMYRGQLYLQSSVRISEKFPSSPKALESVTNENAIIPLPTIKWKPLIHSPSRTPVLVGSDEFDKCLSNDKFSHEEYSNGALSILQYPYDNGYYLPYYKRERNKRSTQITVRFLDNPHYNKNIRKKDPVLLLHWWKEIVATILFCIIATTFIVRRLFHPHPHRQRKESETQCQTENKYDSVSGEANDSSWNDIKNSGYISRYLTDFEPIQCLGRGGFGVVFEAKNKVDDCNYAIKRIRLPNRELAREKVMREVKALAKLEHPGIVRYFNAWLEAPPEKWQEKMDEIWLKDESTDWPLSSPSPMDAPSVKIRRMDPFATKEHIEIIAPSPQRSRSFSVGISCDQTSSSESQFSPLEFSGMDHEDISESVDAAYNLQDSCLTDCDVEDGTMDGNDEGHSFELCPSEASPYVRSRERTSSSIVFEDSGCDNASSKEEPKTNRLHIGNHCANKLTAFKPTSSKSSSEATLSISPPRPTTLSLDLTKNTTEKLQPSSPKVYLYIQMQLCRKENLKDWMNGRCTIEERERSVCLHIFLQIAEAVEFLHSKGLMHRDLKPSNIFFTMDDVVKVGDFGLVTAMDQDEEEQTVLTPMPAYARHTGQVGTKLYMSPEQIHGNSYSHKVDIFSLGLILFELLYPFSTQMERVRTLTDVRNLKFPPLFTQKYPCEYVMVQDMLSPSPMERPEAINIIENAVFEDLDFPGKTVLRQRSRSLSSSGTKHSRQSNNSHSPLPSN

[3] = biological target: T1, Eukaryotic translation initiation factor 2-alpha kinase 3; experiment: Counterscreen assay for PERK inhibitors: Dose response cell-based high throughput screening assay to measure inhibition of PERK at 6 hours. [Related pubchem assays: 1522, 1416 ]; assay type: functional
[4] = growth suppression of PTEN-null colon cells, dose response, cell-based, HCT116 PTEN knockout (AID 1047); assay type: functional;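 note: HCT116 colon tumor cells with PTEN knocked out; cells exposed to compound for 60 hours before readout; potency for loss of cell viability measured by luminescence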
[5] = biological target: T2, Neuropeptide Y receptor type 2 (Homo sapiens, UniProt P49146); assay type: functional, cell-based;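 note: HEK293 cells expressing the receptor and a CNG channel; stimulus was NPY near EC95 followed by isoproterenol to raise cAMP; antagonist potency measured as restoring cAMP signal that NPY suppresses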
T2 sequence (P49146 whole entry): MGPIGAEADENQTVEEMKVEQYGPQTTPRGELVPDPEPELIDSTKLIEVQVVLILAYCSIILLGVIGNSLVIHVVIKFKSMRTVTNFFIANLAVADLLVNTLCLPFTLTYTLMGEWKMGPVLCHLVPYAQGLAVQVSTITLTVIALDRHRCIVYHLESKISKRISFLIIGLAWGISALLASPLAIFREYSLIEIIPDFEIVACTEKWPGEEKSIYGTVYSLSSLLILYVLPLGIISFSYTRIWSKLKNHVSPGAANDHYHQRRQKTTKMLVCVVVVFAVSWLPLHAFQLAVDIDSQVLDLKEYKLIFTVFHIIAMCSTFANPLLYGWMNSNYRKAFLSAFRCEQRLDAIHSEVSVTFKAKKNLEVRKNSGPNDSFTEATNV

[6] = growth suppression of beta-catenin-knockout colon cells, dose response, cell-based, HCT116, human colon tumor (AID 1045); assay type: functional;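 note: HCT116 colon tumor cells with beta catenin knocked out; cells exposed to compound for 60 hours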
[7] = biological target: T3, Neuropeptide Y receptor type 1 (Homo sapiens, UniProt P25929); assay type: functional;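 note: HEK293 cells with a CNG channel challenged with NPY then isoproterenol; potency as antagonist that reverses NPY suppression of cAMP signal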
T3 sequence (P25929 whole entry): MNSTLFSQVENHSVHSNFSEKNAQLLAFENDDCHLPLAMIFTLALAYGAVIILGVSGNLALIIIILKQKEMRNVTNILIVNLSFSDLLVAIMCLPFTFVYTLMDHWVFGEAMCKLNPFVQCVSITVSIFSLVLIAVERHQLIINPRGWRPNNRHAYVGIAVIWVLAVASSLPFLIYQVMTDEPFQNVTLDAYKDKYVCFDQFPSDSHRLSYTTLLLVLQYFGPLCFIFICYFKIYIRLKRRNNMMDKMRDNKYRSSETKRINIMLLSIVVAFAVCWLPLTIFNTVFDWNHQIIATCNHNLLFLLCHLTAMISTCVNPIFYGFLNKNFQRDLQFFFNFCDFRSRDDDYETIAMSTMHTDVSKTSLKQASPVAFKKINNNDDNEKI

[8] = cytotoxicity toward NIH3T3 fibroblasts, dose response, counter-screen, cell-based, ATP luminescence, mouse fibroblasts (AID 2010); assay type: functional;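 note: cells exposed to compound for about 90 hours before reading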
[9] = biological target: Sphingosine 1-phosphate receptor 3 (Homo sapiens, UniProt Q99500); experiment: Dose response cell-based high throughput screening assay for antagonists of the Sphingosine 1-Phosphate Receptor 3 (S1P3). [Related pubchem assays: 1429, 485 ]; assay type: functional
Chain of Sphingosine 1-phosphate receptor 3 (Q99500 whole entry): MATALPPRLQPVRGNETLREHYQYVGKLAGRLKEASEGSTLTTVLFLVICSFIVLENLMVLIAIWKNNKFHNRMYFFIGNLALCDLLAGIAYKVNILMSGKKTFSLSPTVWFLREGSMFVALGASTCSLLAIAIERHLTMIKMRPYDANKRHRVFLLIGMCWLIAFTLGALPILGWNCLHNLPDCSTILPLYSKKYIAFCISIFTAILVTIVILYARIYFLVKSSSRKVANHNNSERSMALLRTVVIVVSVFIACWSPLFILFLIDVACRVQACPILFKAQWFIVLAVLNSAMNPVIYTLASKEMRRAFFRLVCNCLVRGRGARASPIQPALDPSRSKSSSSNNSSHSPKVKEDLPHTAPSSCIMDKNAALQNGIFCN

[10] = HEp-2 cell cytotoxicity, dose response, cytotoxicity control for RSV inhibitor project, HTS (AID 2410); assay type: functional; details: human respiratory syncytial virus
[11] = inhibitors of intracellular T. cruzi replication, confirmation, NIH3T3 host cells, beta-gal luminescence (AID 2044); assay type: functional, cell-based;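 note: intracellular parasites grown in NIH/3T3 mouse fibroblasts as host cells; luminescent beta-galactosidase reporter signal from transgenic T. cruzi replicating inside host cells; inhibitors lower the luminescence signal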
[12] = biological target: 5-hydroxytryptamine receptor 1E (Homo sapiens, UniProt P28566); experiment: Counterscreen assay for S1P3 antagonists: Dose response cell-based high throughput screening assay to identify antagonists of the 5-Hydroxytryptamine Receptor Subtype 1E (5HT1E). [Related pubchem assays: 1429, 485 ]; assay type: functional
Chain of 5-hydroxytryptamine receptor 1E (P28566 whole entry): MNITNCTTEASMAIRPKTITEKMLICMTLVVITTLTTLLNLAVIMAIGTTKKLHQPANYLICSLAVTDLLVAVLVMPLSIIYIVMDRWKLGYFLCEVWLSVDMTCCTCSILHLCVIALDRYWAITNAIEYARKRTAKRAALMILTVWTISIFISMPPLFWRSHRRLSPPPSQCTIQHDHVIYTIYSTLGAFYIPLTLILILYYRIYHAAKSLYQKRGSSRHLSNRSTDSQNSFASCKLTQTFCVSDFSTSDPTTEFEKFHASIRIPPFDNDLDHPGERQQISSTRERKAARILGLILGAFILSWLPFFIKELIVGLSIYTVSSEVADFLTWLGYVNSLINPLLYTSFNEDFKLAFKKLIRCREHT

[13] = biological target: Photoreceptor-specific nuclear receptor (Homo sapiens, UniProt Q9Y5X4); assay type: functional;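 note: potency for compounds that break the NR2E3 corepressor complex and count as activators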
Chain of Photoreceptor-specific nuclear receptor (Q9Y5X4 whole entry): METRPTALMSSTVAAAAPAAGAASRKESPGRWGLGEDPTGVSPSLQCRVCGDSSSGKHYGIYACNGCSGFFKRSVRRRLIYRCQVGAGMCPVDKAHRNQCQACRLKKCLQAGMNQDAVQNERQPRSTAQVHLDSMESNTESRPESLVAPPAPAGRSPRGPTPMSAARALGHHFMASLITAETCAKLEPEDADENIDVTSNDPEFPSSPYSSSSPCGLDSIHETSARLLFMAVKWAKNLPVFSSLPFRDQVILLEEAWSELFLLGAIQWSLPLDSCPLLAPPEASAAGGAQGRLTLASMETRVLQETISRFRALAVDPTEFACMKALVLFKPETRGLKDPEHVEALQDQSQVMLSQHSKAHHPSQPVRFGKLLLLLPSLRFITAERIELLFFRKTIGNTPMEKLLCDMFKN

[14] = biological target: Peroxisome proliferator-activated receptor gamma/Nuclear receptor corepressor 2 (Homo sapiens, UniProt P37231+Q9Y618); assay type: functional
[15] = biological target: T4, Heat shock 70 kDa protein 1A (Homo sapiens, UniProt P0DMV8); experiment: Hsp70 inhibitors, biochemical, TR-FRET (AID 786)
T4 sequence (P0DMV8 whole entry): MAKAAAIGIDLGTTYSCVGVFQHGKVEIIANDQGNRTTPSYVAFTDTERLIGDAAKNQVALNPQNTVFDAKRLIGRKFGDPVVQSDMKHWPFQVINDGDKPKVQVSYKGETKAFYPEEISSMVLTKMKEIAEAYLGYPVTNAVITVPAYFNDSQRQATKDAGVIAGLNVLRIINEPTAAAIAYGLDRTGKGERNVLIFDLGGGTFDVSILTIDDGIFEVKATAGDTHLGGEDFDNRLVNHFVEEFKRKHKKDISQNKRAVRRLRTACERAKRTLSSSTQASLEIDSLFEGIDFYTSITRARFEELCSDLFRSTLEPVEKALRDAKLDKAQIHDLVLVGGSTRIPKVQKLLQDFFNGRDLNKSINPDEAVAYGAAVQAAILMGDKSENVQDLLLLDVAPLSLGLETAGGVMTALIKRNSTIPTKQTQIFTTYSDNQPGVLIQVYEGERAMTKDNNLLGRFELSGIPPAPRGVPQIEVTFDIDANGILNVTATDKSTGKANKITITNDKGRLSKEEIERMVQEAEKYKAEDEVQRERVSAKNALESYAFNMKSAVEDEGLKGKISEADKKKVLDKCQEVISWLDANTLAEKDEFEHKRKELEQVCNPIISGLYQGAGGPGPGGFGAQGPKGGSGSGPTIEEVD

[16] = biological target: T4, Heat shock 70 kDa protein 1A; experiment: Hsp70 inhibitors, probe displacement, primary screen, biochemical, fluorescence polarization (AID 583)
[17] = MC4R antagonists, dose response, counter-screen for LGR2 antagonist project, cell-based, plate reader, cherry pick (AID 743444); assay type: functional;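 note: transfected HEK 293 cells stimulated with alpha-MSH peptide; potency of inhibitors of the alpha-MSH evoked signal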
[18] = Luminescence-based counterscreen assay for KLF5 inhibitors: dose response cell-based high throughput screening assay to identify cytotoxic compounds using the IEC-6 intestinal epithelial cell line. [Related pubchem assays: 1700 (Primary screen.), 1834 (Confirmation screen.), 1858 (Summary AID.), 1905 (Counterscreen.)]; assay type: functional
[19] = Shn3 3'UTR reporter inhibitors, dose response, cell-based, Clone20 osteoblasts, firefly luciferase, cherry-picked (AID 624132); assay type: functional;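 note: firefly luciferase luminescence from reporter carrying the Shn3 3'UTR in osteoblasts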
[20] = cytotoxicity in HEK-293T cells, dose response, cytotoxicity control for TCR NF-kB inhibitor project, luminescence, T-cell screen hits (AID 489026); assay type: functional, cell-based;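 note: cells exposed to compound about 14 hours before the viability readout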
[21] = off-target signal loss in HeLa-CEM21 co-culture – HeLa F-luc CTL cells, cherry-picked, counter-screen for HIV-1 Env fusion inhibitor project, dose response (AID 652040); assay type: functional, cell-based;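 note: potency for signal decrease marking cytotoxic or nonspecific inhibition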
[22] = inhibitors of clade B AD8 Env fusion, dose response, cell-based, cherry-pick (AID 652062); assay type: functional;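 note: luciferase signal from cell-cell fusion driven by HIV-1 clade B AD8 Env; potency is for inhibitors of fusion seen as a drop in luminescence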
[23] = LGR2 antagonists, dose response, cell-based, HEK293, CRE-luciferase reporter, cherry pick, set 2 (AID 743343); assay type: functional;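 note: transfected cells were stimulated with diluted bursicon conditioned medium after compound addition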
[24] = inhibitors of HIV Env-driven cell fusion, dose response, cherry-pick (AID 652057); assay type: functional, cell-based
[25] = HepG2 cell cytotoxicity, dose response, cytotoxicity control, plate reader, cherry-pick, antagonist series (AID 743416); assay type: functional, cell-based
[26] = reduction of Shn3 3'UTR firefly luciferase signal, dose response, Schnurri-3 inhibitor project, cell-based, Clone20 osteoblasts, cherry-pick, set 2 (AID 720490); assay type: functional;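 note: actives lower the luminescence signal as inhibitors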

SMILES: Cc1cccc(N=C(S)N(CCN(C)C)Cc2cc3cc(C)cc(C)c3nc2O)c1
- EC50 [4]: 33.6 µM (active)
- IC50 [5]: 14.3 µM (not active)
- EC50 [6]: 18.1 µM (active)
- IC50 [7]: 6.32 µM (active)

SMILES: CC1C(c2ccccc2)N(C)C(c2ccccc2)CC1(O)c1ccc(F)cc1 (stereo unspecified)
- EC50 [8]: > 60 µM (not active)
- IC50 [9]: > 50 µM (not active)
- CC50 [10]: 19.4 µM (active)
- EC50 [11]: 2.78 µM (active)
- IC50 [12]: > 50 µM (not active)

SMILES: O=C(NCCc1ccccc1)c1ccc2c(c1)OCCO2
- AC50 [17]: 0.885 µM (active)
- IC50 [18]: > 39.8 µM (not active)
- AC50 [19]: 2.16 µM (active)
- IC50 [20]: > 80 µM (inactive)
- AC50 [21]: 4.51 µM (active)
- AC50 [22]: 3.07 µM (active)
- AC50 [23]: 0.801 µM (active)
- AC50 [24]: 2.05 µM (active)
- AC50 [25]: > 52 µM (inactive)
- AC50 [26]: 2.31 µM (active)

Further lines, results first:

- EC50 [1]: > 50 µM (not active)
SMILES: Cc1cc(C)nc(Sc2nc(C)nc3c2oc2ccccc23)n1

- EC50 [2]: > 55.7 µM (not active)
- EC50 [3]: > 55.7 µM (not active)
SMILES: COc1ccccc1NC(=O)CSc1nnc(CCC(=O)Nc2ccccc2F)n1C

- IC50 [13]: 0.139 µM (active)
- IC50 [14]: 0.577 µM (active)
SMILES: COC(=O)CCCCC1SCC2NC(=O)NC21O (stereo unspecified)

- IC50 [15]: > 100 µM (not active)
- IC50 [16]: > 100 µM (not active)
SMILES: Nc1nc2n(n1)C(c1ccco1)CC(c1ccc(Cl)cc1Cl)N2 (stereo unspecified)
